Reference: patent US12581252B2, “Substituted pyrrolo[3,4-b]pyridines as PI3K-α inhibitors” (Relay Therapeutics, Inc., priority 2020, dated 2026)

Tests used:
cells = conditions: Homo sapiens, MCF-10A, read-out: MCF10A IC50
H1047R PIK3CA enzyme = H1047R PIK3CA enzyme (Homo sapiens, UniProt P42336, H1047R); experiment: ADP-Glo Biochemical PIK3CA Kinase Assay
Chain of H1047R PIK3CA enzyme (P42336 whole entry H1047R): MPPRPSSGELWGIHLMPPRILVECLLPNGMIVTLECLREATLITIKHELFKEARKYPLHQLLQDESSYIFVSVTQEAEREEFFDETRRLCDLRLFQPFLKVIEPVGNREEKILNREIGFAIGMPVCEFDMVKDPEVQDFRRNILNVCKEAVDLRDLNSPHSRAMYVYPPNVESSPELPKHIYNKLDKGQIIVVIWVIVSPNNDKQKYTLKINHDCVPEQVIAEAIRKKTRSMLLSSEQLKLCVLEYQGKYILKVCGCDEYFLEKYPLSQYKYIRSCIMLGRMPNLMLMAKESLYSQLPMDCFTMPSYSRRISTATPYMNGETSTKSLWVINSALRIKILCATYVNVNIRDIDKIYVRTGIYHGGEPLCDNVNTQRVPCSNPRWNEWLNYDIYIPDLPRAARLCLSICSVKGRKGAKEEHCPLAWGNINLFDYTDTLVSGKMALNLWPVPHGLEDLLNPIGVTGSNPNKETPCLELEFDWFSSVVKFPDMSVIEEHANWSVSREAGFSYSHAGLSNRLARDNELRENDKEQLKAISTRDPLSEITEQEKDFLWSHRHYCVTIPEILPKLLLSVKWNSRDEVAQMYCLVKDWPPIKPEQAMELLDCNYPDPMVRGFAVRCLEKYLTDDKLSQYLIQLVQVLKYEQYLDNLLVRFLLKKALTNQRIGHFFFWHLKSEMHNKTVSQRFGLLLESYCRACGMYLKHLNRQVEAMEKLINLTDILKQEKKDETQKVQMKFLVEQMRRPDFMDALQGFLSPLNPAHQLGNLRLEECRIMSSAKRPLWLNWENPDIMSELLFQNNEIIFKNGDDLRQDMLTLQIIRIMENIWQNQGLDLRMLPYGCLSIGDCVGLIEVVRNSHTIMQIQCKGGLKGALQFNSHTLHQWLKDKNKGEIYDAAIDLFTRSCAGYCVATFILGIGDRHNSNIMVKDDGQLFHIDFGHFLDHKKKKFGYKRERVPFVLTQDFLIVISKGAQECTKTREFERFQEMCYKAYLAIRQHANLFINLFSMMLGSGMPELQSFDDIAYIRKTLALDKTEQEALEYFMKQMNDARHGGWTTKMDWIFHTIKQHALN
Chain of H1047R PIK3CA enzyme (P27986 whole entry partner): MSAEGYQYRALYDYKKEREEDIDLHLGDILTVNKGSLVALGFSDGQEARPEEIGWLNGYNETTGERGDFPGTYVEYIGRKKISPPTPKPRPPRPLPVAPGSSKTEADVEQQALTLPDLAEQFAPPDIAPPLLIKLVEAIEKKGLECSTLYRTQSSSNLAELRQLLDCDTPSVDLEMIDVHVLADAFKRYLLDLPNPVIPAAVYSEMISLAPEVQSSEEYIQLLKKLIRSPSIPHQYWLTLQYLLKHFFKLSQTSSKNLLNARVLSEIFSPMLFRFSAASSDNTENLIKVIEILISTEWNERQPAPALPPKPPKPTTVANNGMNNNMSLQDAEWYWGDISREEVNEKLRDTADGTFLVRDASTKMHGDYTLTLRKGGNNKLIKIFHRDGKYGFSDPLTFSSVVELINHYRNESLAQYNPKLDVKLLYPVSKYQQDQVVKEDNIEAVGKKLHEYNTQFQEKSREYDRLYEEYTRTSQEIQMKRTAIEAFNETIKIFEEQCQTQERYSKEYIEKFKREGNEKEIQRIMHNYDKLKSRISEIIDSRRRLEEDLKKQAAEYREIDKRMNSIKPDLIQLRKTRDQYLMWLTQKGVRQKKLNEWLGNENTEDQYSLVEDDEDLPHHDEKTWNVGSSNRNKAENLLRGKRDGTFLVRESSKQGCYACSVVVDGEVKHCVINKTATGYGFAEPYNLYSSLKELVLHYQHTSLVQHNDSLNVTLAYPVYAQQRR

SMILES	IC50 (cells)	IC50 (H1047R PIK3CA enzyme)
O=C1N[C@H](c2ccccc2Cl)c2c(NC(=O)N3C[C@@](O)(C(F)(F)F)c4cc(F)ccc43)cccc21 (single isomer, unassigned) [Compound I-2688]	< 1000 nM	≤ 100 nM
CN(C)c1cc(NC(=O)N2C[C@](O)(C(F)(F)F)c3cc(F)ccc32)c2c(n1)C(=O)N[C@H]2c1cc(F)ccc1Cl (single isomer, unassigned) [Compound I-2690]	< 1000 nM	≤ 100 nM
NCc1cc(NC(=O)N2C[C@@](O)(C(F)F)c3cc(F)ccc32)c2c(c1)C(=O)N[C@@H]2c1cc(F)ccc1Cl (single isomer, unassigned) [Compound I-2694]	1000 to 5000 nM	≤ 100 nM
O=C1N[C@H](c2cc(F)ccc2Cl)c2c(NC(=O)N3C[C@@](O)(C(F)(F)F)c4cc(F)ccc43)ccnc21 (single isomer, unassigned) [Compound I-2698]	1000 to 5000 nM	≤ 100 nM
O=C1N[C@H](c2cc(F)ccc2Cl)c2c(NC(=O)N3C[C@@](O)(C(F)(F)F)c4cc(F)ccc43)cc(Cl)nc21 (single isomer, unassigned) [Compound I-2703]	< 1000 nM	≤ 100 nM
O=C1N[C@@H](c2cc(F)ccc2Cl)c2c(NC(=O)N3C[C@](O)(C(F)(F)F)c4cc(F)ccc43)cc(Cl)nc21 (single isomer, unassigned) [Compound I-2704]	< 1000 nM	≤ 100 nM
O=C(Nc1cc(-c2ccncc2F)cc2c1[C@@H](c1cc(F)ccc1Cl)NC2=O)c1cc(F)cc(C(F)(F)F)c1 (stereo in doubt) [Compound I-986]	< 1000 nM	≤ 100 nM
Cn1ccc(-c2cc(NC(=O)c3cc(F)cc(C(F)(F)F)c3)c3c(c2)C(=O)N[C@@H]3c2cc(F)ccc2Cl)cc1=O (stereo in doubt) [Compound I-1002]	< 1000 nM	≤ 100 nM
Nc1ncc(-c2cc(NC(=O)c3cc(F)cc(C(F)(F)F)c3)c3c(c2)C(=O)N[C@@H]3c2cc(F)ccc2Cl)cn1 (stereo in doubt) [Compound I-1003]	< 1000 nM	≤ 100 nM
COc1cccc(-c2cc(NC(=O)c3cc(F)cc(C(F)(F)F)c3)c3c(c2)C(=O)N[C@H]3c2cc(F)ccc2Cl)n1 (stereo in doubt) [Compound I-1006]	< 1000 nM	≤ 100 nM
O=C(Nc1cc(-c2cccnc2)cc2c1[C@@H](c1cc(F)ccc1Cl)NC2=O)c1cc(F)cc(C(F)(F)F)c1 (stereo in doubt) [Compound I-1009]	< 1000 nM	≤ 100 nM
Cc1cnccc1-c1cc(NC(=O)c2cc(F)cc(C(F)(F)F)c2)c2c(c1)C(=O)N[C@H]2c1cc(F)ccc1Cl (stereo in doubt) [Compound I-1010]	< 1000 nM	≤ 100 nM
O=C(Nc1cc(-c2ccc3ncnn3c2)cc2c1[C@H](c1cc(F)ccc1C(F)F)NC2=O)c1cc(F)cc(C(F)(F)F)c1 (stereo in doubt) [Compound I-1056]	< 1000 nM	≤ 100 nM
O=C(Nc1cc(-c2ccc3ncnn3c2)cc2c1[C@H](c1cc(F)cc(F)c1Cl)NC2=O)c1cc(F)cc(C(F)(F)F)c1 (stereo in doubt) [Compound I-1062]	< 1000 nM	≤ 100 nM
O=C(Nc1cc(-c2ccc3ncnn3c2)cc2c1[C@H](c1cc(F)ccc1Cl)NC2=O)c1cc(F)cc(OC(F)(F)F)c1 (stereo in doubt) [Compound I-1111]	< 1000 nM	≤ 100 nM
O=C1N[C@@H](c2cc(F)ccc2Cl)c2c(NC(=O)N3CCc4ccccc43)cc(-c3ccc4ncnn4c3)cc21 (stereo in doubt) [Compound I-1715]	< 1000 nM	≤ 100 nM
N#CCCc1cc(NC(=O)c2cc(F)cc(C(F)(F)F)c2)c2c(c1)C(=O)N[C@H]2c1cc(F)ccc1Cl (stereo in doubt) [Compound I-2169]	< 1000 nM	≤ 100 nM
O=C1N[C@@H](c2cc(F)ccc2Cl)c2c(NC(=O)N3C[C@@H](O)c4ccc(F)cc43)cccc21 (stereo in doubt) [Compound I-2171]	< 1000 nM	≤ 100 nM
